Results as given in patent US20250154169A1, “COMPOUNDS AND METHODS FOR MODULATING SPLICING” (REMIX THERAPEUTICS INC., priority 2021, published 2025).

Experiments:
HTT mRNA = assay: Splicing RT-qPCR assay, HTT canonical (CJ) and alternative (AJ) junction mRNA; type: cell-based, human; settings: Homo sapiens, A673 or K562 cells, 24 hours compound treatment; for IC50: 24 h, read-out: HTT CJ (IC50, decrease in canonical junction mRNA); for AC50: read-out: HTT AJ (AC50, increase in alternative junction mRNA)
Protocol: (§1) Compounds described herein were used to modulate RNA transcript abundance in cells. The expression of a target mRNA was measured by detecting the formation of an exon-exon junction in the canonical transcript (CJ). A compound mediated exon-inclusion event was detected by observing an increase in formation of a new junction with an alternative exon (AJ). Real-time qPCR assays were used to detect these splicing switches and interrogate the potency of various compounds towards different target genes. A high-throughput real time quantitative PCR (RT-qPCR) assay was developed to measure these two isoforms of the mRNA (CJ and AJ) for exemplary genes, such as HTT, SMN2, and MYB, together with a control housekeeping gene, GAPDH or GUSB or PPIA, used for normalization. Briefly, the A673 or K562 cell line was treated with various compounds described herein (e.g., compounds of Formula (I)). After treatment, the levels of the HTT, MYB, or SMN2 mRNA targets were determined from each sample of cell lysate by cDNA synthesis followed by qPCR.
(§2) • Cells-to-CT 1-step kit: ThermoFisher A25602, Cells-to-CT lysis reagent: ThermoFisher 4391851C, TaqMan™ Fast Virus 1-Step Master Mix: ThermoFisher 4444436 • GAPDH: VIC-PL, ThermoFisher 4326317E (Assay: Hs99999905_m1)—used for K562/suspension cell lines • GUSB: VIC-PL, ThermoFisher 4326320E (Assay: Hs99999908_m1)—used for K562/suspension cell lines • PPIA: VIC-PL, ThermoFisher 4326316E (Assay: Hs99999904_m1)—used for A673/adherent cell lines
(§3) The A673 cell line was cultured in DMEM with 10% FBS. Cells were diluted with full growth media and plated in a 96-well plate (15,000 cells in 100 ul media per well). The plate was incubated at 37° C. with 5% CO2 for 24 hours to allow cells to adhere. An 11-point 3-fold serial dilution of the compounds was made in DMSO then diluted in media in an intermediate plate. Compounds were transferred from the intermediate plate to the cell plate with the top dose at a final concentration of 10 uM in the well. Final DMSO concentration was kept at or below 0.25%. The cell plate was returned to the incubator at 37° C. with 5% CO2 for an additional 24 hours.
(§4) The K562 cell line was cultured in IMDM with 10% FBS. For K562, cells were diluted with full growth media and plated in either a 96-well plate (50,000 cells in 50 uL media per well) or a 384-well plate (8,000-40,000 cells in 45 uL media per well). An 11-point 3-fold serial dilution of the compounds were made in DMSO then diluted in media in an intermediate plate. Compound was transferred from the intermediate plate to the cell plate with the top dose at a final concentration of 10 uM in the well. Final DMSO concentration was kept at or below 0.25%. Final volume was 100 uL for 96-well plate and 50 uL for 384-well plate. The cell plate was then placed in an incubator at 37° C. with 5% CO2 for 24 hours.
(§5) The cells were then gently washed with 50 uL-100 uL cold PBS before proceeding to addition of lysis buffer. 30 uL-50 uL of room temperature lysis buffer with DNAse I (and optionally RNAsin) was added to each well. Cells were shaken/mixed thoroughly at room temperature for 5-10 minutes for lysis to take place and then 3 uL-5 uL of room temperature stop solution was added and wells were shaken/mixed again. After 2-5 minutes, the cell lysate plate was transferred to ice for RT-qPCR reaction setup. The lysates could also be frozen at −80° C. for later use.
(§6) In some cases, a direct lysis buffer was used. An appropriate volume of 3× lysis buffer (10 mM Tris, 150 mM NaCl, 1.5%-2.5% Igepal and 0.1-1 U/uL RNAsin, pH 7.4) was directly added to either K562 or A673 cells in media and mixed by pipetting 3 times. The plates were then incubated at room temperature with shaking/rocking for 20-50 minutes to allow for lysis to take place. After this time, the cell lysate plate was transferred to ice to set up for the RT-qPCR reactions. The lysates could also be frozen at −80° C. for later use. […]

MYB mRNA = assay: Splicing RT-qPCR assay, MYB canonical (CJ) and alternative (AJ) junction mRNA; type: cell-based, human; settings: Homo sapiens, 24 h, A673 or K562 cells, 24 hours compound treatment, RT-qPCR; for AC50: read-out: MYB AJ (AC50, increase in alternative junction mRNA); for IC50: read-out: MYB CJ (IC50, decrease in canonical junction mRNA)
Protocol: as §1, §2, §3, §4, §5, §6

Structure (SMILES)	IC50 (HTT mRNA)	AC50 (HTT mRNA)	AC50 (MYB mRNA)	IC50 (MYB mRNA)
CCn1cc2c(N3CC[C@@H](NC)C3)cc(F)c(C(=O)Nc3cc(F)c4nc(C)cn4c3)c2n1 [Compound 479, 2-ethyl-6-fluoro-N-{8-fluoro-2-methylimidazo[1,2-a]pyridin-6-yl}-4-[(3R)-3-(methylamino)pyrrolidin-1-yl]indazole-7-carboxamide; trifluoroacetic acid]	1000 to 10000 nM	1000 to 10000 nM	< 100 nM	< 100 nM
CCn1cc2c(N3CCN(C)CC3)cc(F)c(C(=O)Nc3cc(F)c4nc(C)cn4c3)c2n1 [Compound 481, 2-ethyl-6-fluoro-N-{8-fluoro-2-methylimidazo[1,2-a]pyridin-6-yl}-4-(4-methylpiperazin-1-yl) indazole-7-carboxamide]	100 to 1000 nM	1000 to 10000 nM	100 to 1000 nM	< 100 nM
CCn1cc2c(N3CC4(CCCN4)C3)ccc(C(=O)Nc3cc(F)c4nc(C)cn4c3)c2n1 [Compound 482, 4-{2,5-diazaspiro[3.4]octan-2-yl}-2-ethyl-N-{8-fluoro-2-methylimidazo[1,2-a]pyridin-6-yl}indazole-7-carboxamide]	> 10000 nM	> 10000 nM	1000 to 10000 nM	1000 to 10000 nM
Cc1cc(NC(=O)c2ccc(N3CCNCC3)c3cn(C)nc23)c(O)c2cn(C)nc12 [Compound 484, N-(4-hydroxy-2,7-dimethylindazol-5-yl)-2-methyl-4-(piperazin-1-yl) indazole-7-carboxamide]	> 10000 nM	> 10000 nM	> 10000 nM	> 10000 nM
Cc1cn2cc(NC(=O)c3ccc(N4CCOCC4)c4cn(C)nc34)cc(F)c2n1 [Compound 486, N-{8-fluoro-2-methylimidazo[1,2-a]pyridin-6-yl}-2-methyl-4-(morpholin-4-yl) indazole-7-carboxamide]	100 to 1000 nM	100 to 1000 nM	100 to 1000 nM	100 to 1000 nM
Cc1cn2cc(NC(=O)c3ccc(N4CCCC4)c4cn(C)nc34)cc(F)c2n1 [Compound 487, N-{8-fluoro-2-methylimidazo[1,2-a]pyridin-6-yl}-2-methyl-4-(pyrrolidin-1-yl) indazole-7-carboxamide]	1000 to 10000 nM	1000 to 10000 nM	1000 to 10000 nM	1000 to 10000 nM
Cc1nnc2ccc(NC(=O)c3ccc(N4CCNCC4)c4cn(C)nc34)cn12 [Compound 488, 2-methyl-N-{3-methyl-[1,2,4]triazolo[4,3-a]pyridin-6-yl}-4-(piperazin-1-yl) indazole-7-carboxamide]	> 10000 nM	> 10000 nM	> 10000 nM	> 10000 nM
Cc1nc2cc(NC(=O)c3ccc(N4CCNCC4)c4cn(C)nc34)ccn2n1 [Compound 489, 2-methyl-N-{2-methyl-[1,2,4]triazolo[1,5-a]pyridin-7-yl}-4-(piperazin-1-yl) indazole-7-carboxamide]	> 10000 nM	> 10000 nM	> 10000 nM	> 10000 nM
Cc1cn2cc(NC(=O)c3ccc(N4CCNCC4)c4c[nH]nc34)cc(F)c2n1 [Compound 490, N-{8-fluoro-2-methylimidazo[1,2-a]pyridin-6-yl}-4-(piperazin-1-yl)-2H-indazole-7-carboxamide]	> 10000 nM	> 10000 nM	1000 to 10000 nM	1000 to 10000 nM
CCn1cc2c(N3CC4(CCNC4)C3)ccc(C(=O)Nc3cc(F)c4nc(C)cn4c3)c2n1 [Compound 491, 4-{2,6-diazaspiro[3.4]octan-2-yl}-2-ethyl-N-{8-fluoro-2-methylimidazo[1,2-a]pyridin-6-yl}indazole-7-carboxamide]	1000 to 10000 nM	> 10000 nM	1000 to 10000 nM	100 to 1000 nM
CCn1cc2c(N3CC4(CCNCC4)C3)ccc(C(=O)Nc3cc(F)c4nc(C)cn4c3)c2n1 [Compound 492, 4-{2,7-diazaspiro[3.5]nonan-2-yl}-2-ethyl-N-{8-fluoro-2-methylimidazo[1,2-a]pyridin-6-yl}indazole-7-carboxamide]	1000 to 10000 nM	> 10000 nM	1000 to 10000 nM	100 to 1000 nM
CN1CCN(c2ccc(C(=O)Nc3cc(F)c4nc(CO)oc4c3)c3nn(C)cc23)CC1 [Compound 494, N-[4-fluoro-2-(hydroxymethyl)-1,3-benzoxazol-6-yl]-2-methyl-4-(4-methylpiperazin-1-yl) indazole-7-carboxamide]	> 10000 nM	> 10000 nM	> 10000 nM	> 10000 nM
CO[C@H]1C[C@H](n2cc3c(N4CCNCC4)ccc(C(=O)Nc4cc(F)c5nc(C)cn5c4)c3n2)C1 [Compound 496, Cis-N-(8-fluoro-2-methylimidazo[1,2-a]pyridin-6-yl)-2-((1s,3s)-3-methoxycyclobutyl)-4-(piperazin-1-yl)-2H-indazole-7-carboxamide 2,2,2-trifluoroacetate]	> 10000 nM	> 10000 nM	> 10000 nM	> 10000 nM
Cc1cn2cc(NC(=O)c3ccc(N4CCNCC4)c4cn(CC5COC5)nc34)cc(F)c2n1 [Compound 497, N-{8-fluoro-2-methylimidazo[1,2-a]pyridin-6-yl}-2-(oxetan-3-ylmethyl)-4-(piperazin-1-yl) indazole-7-carboxamide]	100 to 1000 nM	100 to 1000 nM	< 100 nM	< 100 nM
CCn1cc2c(OC3CCNC3)ccc(C(=O)Nc3cc(F)c4nc(C)cn4c3)c2n1 (stereo not drawn) [Compound 498, 2-ethyl-N-{8-fluoro-2-methylimidazo[1,2-a]pyridin-6-yl}-4-(pyrrolidin-3-yloxy) indazole-7-carboxamide]	100 to 1000 nM	1000 to 10000 nM	100 to 1000 nM	100 to 1000 nM
Cn1cc2c(N3CCNCC3)ccc(C(=O)Nc3ccc4c(c3)oc(=O)n4C)c2n1 [Compound 499, 2-methyl-N-(3-methyl-2-oxo-2,3-dihydrobenzo[d]oxazol-6-yl)-4-(piperazin-1-yl)-2H-indazole-7-carboxamide]	> 10000 nM	> 10000 nM	> 10000 nM	> 10000 nM
CCNC1CCN(c2ccc(C/N=C3\C=C(F)c4nc(C)cn4C3)c3nn(C)cc23)CC1 [Compound 500, N-ethyl-1-[7-({[(6E)-8-fluoro-2-methyl-5H-imidazo[1,2-a]pyridin-6-ylidene]amino}methyl)-2-methylindazol-4-yl]piperidin-4-amine]	> 10000 nM	> 10000 nM	> 10000 nM	> 10000 nM
CCNC1CCN(c2ccc(C(=O)Nc3cn4cc(C)nc4c(F)c3OC)c3oc(C)cc23)CC1 [Compound 501, 4-(4-(ethylamino)piperidin-1-yl)-N-(8-fluoro-7-methoxy-2-methylimidazo[1,2-a]pyridin-6-yl)-2-methylbenzofuran-7-carboxamide 2,2,2-trifluoroacetate]	< 100 nM	< 100 nM	< 100 nM	< 100 nM
